Measured values from PubChem BioAssay AID2823 (Broad Institute, 2010).
The source made the active and inactive calls. No rule for the calls is given here.

molecular target: RanGTP-importin-beta complex (human Ran / KPNB1); assay: disruptors of RanGTP/KPNB1 binding – biochemical, FRET, CFP/YFP, cell-free homogeneous, confirmation (AID 2823); settings: CFP-Ran/YFP-importin-beta FRET ratio

SMILES | IC50
Cc1cccc(-n2c(C)cc(/C=C3\C(=N)N4N=C(CC(C)C)SC4=NC3=O)c2C)c1 | 10.6 µM
Cc1ccc2nc(/C(C#N)=C/c3ccc(O)c(O)c3)[nH]c2c1 | > 50 µM (inactive)
Cc1cc(C=C(C#N)C#N)ccc1N1CCCC1 | > 50 µM (inactive)
Cc1cc(C)c(C#N)c(Nc2ccccc2C)n1 | > 50 µM (inactive)
CCc1cc(=O)oc2c(CN3CCN(C)CC3)c(O)c(Cl)cc12 | 27.1 µM
CC(C)Sc1nc(N2CCOCC2)c2c(c1C#N)CC(C)(C)N(C)C2 | 46.2 µM
CC(C)(C)n1cnc2cc(NCc3ccc(Br)cc3)ccc21 | > 50 µM (inactive)
Cc1ccc(C(=O)NNC2CC(=O)N(c3ccc4c(c3)OCCO4)C2=O)cc1 (stereo not given) | > 50 µM (inactive)
CCc1cc2c(COC(=O)c3c(C)noc3C)cc(=O)oc2cc1O | > 50 µM (inactive)
CC(C)CN(Cc1c(O)ccc2ccccc12)CC(C)C | > 50 µM (inactive)
COC(=O)[C@@H]1[C@H]2C[C@H]3c4[nH]c5ccccc5c4CCN3C[C@@H]2CC[C@@H]1O | > 50 µM (inactive)
CCOC(=O)c1ccc(CNC(=O)CSc2nnc(-c3ccncc3)o2)cc1 | > 50 µM (inactive)
CCCNS(=O)(=O)c1ccc2c(c1)CCCN2C(C)=O | > 50 µM (inactive)
CCOc1ccc(N2C(=O)C3C4C=CC(CC4)C3C2=O)c([N+](=O)[O-])c1 (stereo not given) | > 50 µM (inactive)
N#CCCN(C(=O)Nc1ccc(Cl)cc1)c1ccccc1 | > 50 µM (inactive)
Cc1c(S(=O)(=O)N2CCCC(C(=O)O)C2)cnn1C (stereo not given) | > 50 µM (inactive)
Cc1cc(O)ccc1NC1=CC(=O)CC(C)(C)C1 | > 50 µM (inactive)
Cc1cccc(-c2nnc(NC(=O)c3ccc(N4C(=O)CCC4=O)cc3)s2)c1 | > 50 µM (inactive)
Cc1c(O)c(CN2CCCCC2)cc2c3c(c(=O)oc12)CCC3 | 9.04 µM
Cc1ccc(S(=O)(=O)NCCc2cn3nc(C)c(C)nc3n2)cc1C | 33.3 µM
O=C(O)COc1ccc(F)cc1Br | > 50 µM (inactive)
CS(=O)(=O)N(CC(=O)NCCSCc1ccco1)c1ccc(Cl)cc1 | > 50 µM (inactive)
CCN1CCc2c(sc(N)c2C#N)C1 | 16.5 µM
CCOC(=O)c1c(NC(=O)Nc2ccc(F)cc2)sc2c1CCN(C)C2 | > 50 µM (inactive)
CC(C)OC(=O)c1c(N)n(CCCN2CCOCC2)c2nc3ccccc3nc12 | 25.8 µM
COc1cc(S(=O)(=O)NCCCN2CCOCC2)ccc1Cl | > 50 µM (inactive)
CC1(C)CC(=O)C/C(=N\NC(=O)Cc2ccccc2)C1 | > 50 µM (inactive)

SMILES | IC50
O=C(O)c1c2c(nc3ccccc13)/C(=C/c1ccc(OC(F)F)cc1)CCC2 | > 50 µM (inactive)
O=C(NC1CC1)c1ccc2c(Cl)c3c(nc2c1)CCCC3 | > 50 µM (inactive)
Cc1cc(Nc2ccccc2)nn1C(=O)c1ccccc1 | > 50 µM (inactive)
Clc1ccc(-c2nnc(SCc3nc4ccccc4[nH]3)o2)c(Cl)c1 | > 50 µM (inactive)
CCOCCCNC(=O)NC(=O)CN1CCN(S(=O)(=O)c2ccc3c(c2)OCCO3)CC1 | > 50 µM (inactive)
O=C(CN1CCN(C/C=C/c2ccccc2)CC1)NC(=O)NC1CCCCC1 | > 50 µM (inactive)
COCCOC(=O)C1=C(C)OC(N)=C(C(=O)OC)C12C(=O)Nc1ccccc12 (stereo not given) | > 50 µM (inactive)
CC(C)Sc1nc(N2CCOCC2)c2c3c(sc2n1)COC(C)(C)C3 | > 50 µM (inactive)
CCCOC(=S)NC(=O)c1sc2ccccc2c1Cl | > 50 µM (inactive)
CCN(C(=O)c1ccc(Cl)cc1[N+](=O)[O-])c1ccccc1C | > 50 µM (inactive)
CC(C)(C)C(=O)NC(=S)Nc1ccc(S(=O)(=O)Nc2nccs2)cc1 | > 50 µM (inactive)
COC(=O)c1cc(NC(=O)c2ccc([N+](=O)[O-])cc2)c(=O)oc1C | > 50 µM (inactive)
Cn1c2ccccc2c(=O)c2ccc(F)cc21 | 12.6 µM
COc1ccc(C(=O)NCCNc2nc3c(C)cccc3cc2C#N)cc1 | 24.4 µM
O=C1NC(=S)S/C1=C1\Sc2ccccc2N1CCCS(=O)(=O)O | 12.5 µM
Cc1ccccc1-n1c(=O)cc(N2CC(C)OC(C)C2)[nH]c1=O (stereo not given) | > 50 µM (inactive)
CCS(=O)(=O)c1nc(S(=O)(=O)c2ccc(C)cc2)c(NCc2ccccn2)s1 | > 50 µM (inactive)
Cc1cccc(N2CCN(C(=O)C3COc4ccccc4O3)CC2)c1C (stereo not given) | > 50 µM (inactive)
Cc1c(CC(=O)NCC(=O)N[C@H](Cc2ccccc2)C(=O)O)c(=O)oc2cc(O)ccc12 | 46.2 µM
Cc1cccc2cc(C#N)c(NCCCn3ccnc3)nc12 | 19.2 µM
COCC(C)OC(=O)c1c(N)n(CC(C)C)c2nc3ccccc3nc12 (stereo not given) | 28.5 µM
Cc1oc2cc(O)ccc2c(=O)c1-c1nncn1-c1ccccc1 | 32.3 µM
COc1cc(C(=O)N2CCCN(c3nc4cc(C)ccc4cc3C#N)CC2)cc(OC)c1OC | 10.9 µM
Cc1ccc2cc(C#N)c(N3CCCC3)nc2c1C | > 50 µM (inactive)
Cc1c(Br)c(=O)oc2c(Br)c(O)c(O)cc12 | 26.3 µM
N#Cc1c(N)n(CCNC(=O)c2ccc(Cl)cc2)c2nc3ccccc3nc12 | 7.21 µM
CCN(CC)Cc1c(O)ccc2c(C)c(CC(=O)OC)c(=O)oc12 | 14 µM

SMILES | IC50
C=CCN1C=CC(=CC=C(C#N)C#N)C=C1 | 29.1 µM
CCOC(=O)c1ccc(NC(=O)CSc2nnc(C3CCCCC3)n2C)cc1 | > 50 µM (inactive)
O=C(O)C1CCCC2CN3CCc4c([nH]c5ccccc45)C3C(O)C21 (stereo not given) | > 50 µM (inactive)
Cc1cc(C)c(S(=O)(=O)N(C)CC(N)=O)c(C)c1 | > 50 µM (inactive)
C/C(=N\N)c1c(-c2ccccc2)c2cc(Br)ccc2[nH]c1=O | > 50 µM (inactive)
Cc1cc(C)c2c(N)c(C(=O)NN3CC(=O)N(c4ccccc4F)CC3=O)sc2n1 | > 50 µM (inactive)
Fc1ccccc1N1CCN(c2nc3ccccc3n3nnnc23)CC1 | 37.8 µM
Cc1cc(C)c(C2=CC(c3ccccc3)n3ncnc3N2)cc1C (stereo not given) | 38.5 µM
Cc1ccc(OCC(=O)NNc2c3ccccc3nc3ccccc23)cc1 | > 50 µM (inactive)
COC(=O)C1=CN(Cc2ccc(OC)c(OC)c2)C=C(C(=O)OC)C1c1ccccc1F | 9.77 µM
Cc1nc2[nH]c(=O)c3c(n2n1)NC1=C(C(=O)CC(C)(C)C1)C3c1ccc(F)cc1 (stereo not given) | 2.73 µM
CC1CCCCN1Cc1c(O)ccc2c(=O)c(-c3nc4ccccc4s3)coc12 (stereo not given) | < 0.38 µM
COc1cc(C(=O)NCCCNc2nc3cc(C)cc(C)c3cc2C#N)cc(OC)c1OC | 29.8 µM
COCCN1C=C(C(=O)OC)C(c2ccc(Cl)cc2)C(C(=O)OC)=C1 | 9.78 µM
Cc1cc(CNC(=O)COc2ccc(F)cc2)c2ccccc2n1 | > 50 µM (inactive)
CCN1CCN(Cc2c(O)c(Cl)cc3c(C)cc(=O)oc23)CC1 | 33.4 µM
CCN(CC)S(=O)(=O)c1ccc(OC)c(NC(=O)C2CC(=O)N(c3ccc(C)cc3)C2)c1 (stereo not given) | > 50 µM (inactive)
COc1ccc(-c2nc(NC(=O)c3n[nH]c(=O)c4ccccc34)sc2C)cc1 | > 50 µM (inactive)
Cc1ccc(Nc2nc(N)[nH]c(=O)c2N=O)cc1 | 16.1 µM
COc1ccc(/C=N/NC(=O)c2sc3nc(C)cc(C)c3c2N)cc1 | 21 µM
CCN(/N=C/C=C/c1ccccc1)c1cc(=O)n(C)c(=O)[nH]1 | > 50 µM (inactive)
CC(=O)Nc1cccc(C(=O)N/N=C/c2ccc(F)cc2)c1 | > 50 µM (inactive)
Cc1sc(NC(=O)c2oc3ccccc3c2C)c(C#N)c1C | > 50 µM (inactive)
Cc1ccc2[nH]c(=O)c(C(c3nnnn3Cc3ccccc3)N3CCc4ccccc43)cc2c1 (stereo not given) | > 50 µM (inactive)
N#Cc1ccc(/C=C(\C(=O)C(=O)O)c2ccc3ccccc3n2)cc1 | 12 µM
O=C(Oc1ccc2c3c(c(=O)oc2c1)CCCC3)c1ccco1 | 16 µM
COc1cc(/C(O)=C(\C#N)c2nc3ccccc3[nH]2)cc(OC)c1OC | 15.5 µM

SMILES | IC50
CCCCc1cc(-c2n[nH]c(=S)o2)c2ccccc2n1 | > 50 µM (inactive)
C=CCn1c(SCC(=O)Nc2sccc2C(N)=O)nc2ccccc2c1=O | > 50 µM (inactive)
Cc1ccccc1-n1cnc2cc(NCc3cccs3)ccc21 | > 50 µM (inactive)
CC(=O)Oc1cc2oc(=O)cc(C)c2cc1OC(C)=O | 24.7 µM
CCOC(=O)/C(C#N)=C/c1ccc(N2CCN(C)CC2)cc1 | 16 µM
CCCCOc1ccc(OCCSc2nc3ccccc3n2CC(=O)O)cc1 | > 50 µM (inactive)
Cc1cc(/C=C2\C(=O)NC(=O)N(c3ccc(F)cc3)C2=O)c(C)n1-c1ccc(C(=O)O)cc1 | > 50 µM (inactive)
O=C(CN1CCOCC1)NNc1c2ccccc2nc2ccccc12 | > 50 µM (inactive)
N#Cc1c(N)nc2c(c1-c1ccc(F)cc1)CCC2 | 11 µM
CN(C)S(=O)(=O)c1ccc(N2CCCC2)c(C(=O)NC(c2ccccc2)c2ccccc2)c1 | > 50 µM (inactive)
CCOC(=O)C(=O)Nc1cc(C(=O)OC)cc(C(=O)OC)c1 | > 50 µM (inactive)
COCCCNC(=O)/C(C#N)=C/c1c(N2CCN(c3ccccc3)CC2)nc2ccccn2c1=O | 25.9 µM
CC(=O)O/N=C/c1c(Cl)n(C)c2ccccc12 | > 50 µM (inactive)
Cc1nc2ccccc2c2oc(C(=O)NCCCN3CCC(C)CC3)cc12 | > 50 µM (inactive)
c1cncc(Nc2c3ccccc3nc3ccccc23)c1 | > 50 µM (inactive)
COc1ccc(C(=O)N/N=C/c2c(CO)cnc(C)c2O)cc1 | 3.13 µM
Cc1ccc2nc(N3CCN(Cc4nnnn4Cc4ccccc4)CC3)c(C#N)cc2c1 | 23 µM
CCn1c(SCc2nc(-c3ccccc3)no2)nnc1-c1cccs1 | > 50 µM (inactive)
CCN1CCc2nc(NC(=O)CC(c3ccccc3)c3ccccc3)sc2C1 | 23.2 µM
COc1cc(C(=O)NCCNc2nc3cc(C)ccc3cc2C#N)cc(OC)c1OC | 34.6 µM
S=c1[nH]c2ccc3ccccc3c2[nH]1 | > 50 µM (inactive)
COc1ccc(-n2cnc3cc(NCc4cccs4)ccc32)cc1 | > 50 µM (inactive)
O=[N+]([O-])c1ccc(S(=O)(=O)Nc2nnc(C3CCCCC3)s2)cc1 | > 50 µM (inactive)
O=C(N/N=C/c1ccc(-c2ccccc2Cl)o1)c1ccccc1 | > 50 µM (inactive)
